Results reported in patent US5494790A, “α-3 sialyltransferase” (Kyowa Hakko Kogyo Co., Ltd., priority 1991, dated 1996).

Legend:
[1] = tested on: α2→3 Sialyltransferase encoded in the plasmid pAMoPRSAL-35F (fused protein with the IgG-binding region of Staphylococcus aureus protein A); assay: Sialyltransferase activity on IgG Sepharose, HPLC of pyridylaminated sugar chain substrates (Table 1); assay type: biochemical, human; details: for α2→3 Sialyltransferase activity, pAMoPRSAL-35F, pmol: 0.1 mM substrate, 5 μl IgG Sepharose, 5 mM CMP-sialic acid, 37° C., 2 hours; for acceptance as substrate by the α2→3 sialyltransferase (in words): IgG Sepharose from Namalwa cells having pAMoPRSAL-35F; for α2→3 Sialyltransferase activity, pAMoPRSAL-35F, Relative activity: activity to the substrate LNnT taken as 100
[2] = molecular target: T1, α2→3 sialyltransferase encoded in the plasmid pAMoPRSAW17-31F (fused protein with the IgG-binding region of Staphylococcus aureus protein A) (Homo sapiens, UniProt Q11206); assay: Sialyltransferase activity on IgG Sepharose, HPLC of pyridylaminated sugar chain substrates (Table 2); assay type: biochemical; details: for α2→3 Sialyltransferase activity, pAMoPRSAW17-31F, pmol: 0.1 mM substrate, 5 μl IgG Sepharose, 5 mM CMP-sialic acid, 37° C., 2 hours; for acceptance as substrate by the α2→3 sialyltransferase (in words): IgG Sepharose from Namalwa cells having pAMoPRSAW17-31F; for α2→3 Sialyltransferase activity, pAMoPRSAW17-31F, Relative activity: activity to the substrate LNnT taken as 100
T1 construct: from 31st Phe to 329th Phe; made in house
T1 sequence (Q11206 35-333): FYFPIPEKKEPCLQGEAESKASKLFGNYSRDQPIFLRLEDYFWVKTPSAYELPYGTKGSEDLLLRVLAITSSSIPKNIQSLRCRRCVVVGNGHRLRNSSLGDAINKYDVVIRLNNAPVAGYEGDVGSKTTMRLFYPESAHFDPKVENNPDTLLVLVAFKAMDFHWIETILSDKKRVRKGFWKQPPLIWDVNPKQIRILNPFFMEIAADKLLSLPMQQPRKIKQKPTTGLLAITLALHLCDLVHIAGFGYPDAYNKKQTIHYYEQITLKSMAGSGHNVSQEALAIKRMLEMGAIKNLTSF

[3] = molecular target: T2, known α2→3 sialyltransferase (Rattus norvegicus, UniProt Q02734); details: activity to the substrate LNT taken as 100; cited from earlier work
T2 sequence (Q02734 1-374): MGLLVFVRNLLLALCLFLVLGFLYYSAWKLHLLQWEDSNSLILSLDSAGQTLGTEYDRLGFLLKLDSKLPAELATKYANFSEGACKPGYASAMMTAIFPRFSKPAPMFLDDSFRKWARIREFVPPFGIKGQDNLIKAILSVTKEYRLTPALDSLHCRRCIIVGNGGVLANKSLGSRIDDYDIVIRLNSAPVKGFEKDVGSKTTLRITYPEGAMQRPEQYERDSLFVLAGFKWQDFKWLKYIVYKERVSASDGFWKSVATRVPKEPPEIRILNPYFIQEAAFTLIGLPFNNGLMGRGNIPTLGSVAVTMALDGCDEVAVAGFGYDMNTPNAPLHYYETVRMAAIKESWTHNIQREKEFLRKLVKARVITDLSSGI

## CC(=O)N[C@H]1[C@H](O[C@H]2[C@@H](O)[C@@H](CO)O[C@@H](O[C@H]3[C@H](O)[C@@H](O)C(O)O[C@@H]3CO)[C@@H]2O)O[C@H](CO)[C@@H](O[C@@H]2O[C@H](CO)[C@H](O)[C@H](O)[C@H]2O)[C@@H]1O[C@@H]1O[C@@H](C)[C@@H](O)[C@@H](O)[C@@H]1O (some centres unmarked) [lacto-N-fucopentaose III]
[1]
  α2→3 Sialyltransferase activity, pAMoPRSAL-35F, pmol: 8.1 pmol
  acceptance as substrate by the α2→3 sialyltransferase (in words): can take LNFP-III as the substrate
  α2→3 Sialyltransferase activity, pAMoPRSAL-35F, Relative activity: 16
[2]
  α2→3 Sialyltransferase activity, pAMoPRSAW17-31F, pmol: 9.4 pmol
  acceptance as substrate by the α2→3 sialyltransferase (in words): can take LNFP-III as the substrate
  α2→3 Sialyltransferase activity, pAMoPRSAW17-31F, Relative activity: 8

## CC(=O)N[C@H]1[C@H](O[C@H]2[C@@H](O)[C@@H](CO)O[C@@H](O[C@H]3[C@H](O)[C@@H](O)C(O)O[C@@H]3CO)[C@@H]2O)O[C@H](CO)[C@@H](O[C@@H]2O[C@H](CO)[C@H](O)[C@H](O)[C@H]2O)[C@@H]1O (some centres unmarked) [LNnT, Galβ1-4GlcNAcβ1-3Galβ1-4Glc]
[1]
  α2→3 Sialyltransferase activity, pAMoPRSAL-35F, pmol: 51.3 pmol
  acceptance as substrate by the α2→3 sialyltransferase (in words): can take not only LNnT but also LNT as the substrate
  α2→3 Sialyltransferase activity, pAMoPRSAL-35F, Relative activity: 100
[2]
  α2→3 Sialyltransferase activity, pAMoPRSAW17-31F, pmol: 113.8 pmol
  acceptance as substrate by the α2→3 sialyltransferase (in words): can take not only LNnT but also LNT as the substrate
  α2→3 Sialyltransferase activity, pAMoPRSAW17-31F, Relative activity: 100
[3]
  Known α2→3 ST Relative activity (Table 1): 6
  Known α2→3 ST Relative activity (Table 2): 6

## CC(=O)N[C@H]1[C@H](O[C@H]2[C@@H](O)[C@@H](CO)O[C@@H](O[C@H]3[C@H](O)[C@@H](O)C(O)O[C@@H]3CO)[C@@H]2O)O[C@H](CO)[C@@H](O)[C@@H]1O[C@@H]1O[C@H](CO)[C@H](O)[C@H](O)[C@H]1O (some centres unmarked) [LNT, Galβ1-3GlcNAcβ1-3Galβ1-4Glc]
[1]
  α2→3 Sialyltransferase activity, pAMoPRSAL-35F, pmol: 23.8 pmol
  acceptance as substrate by the α2→3 sialyltransferase (in words): can take not only LNnT but also LNT as the substrate
  α2→3 Sialyltransferase activity, pAMoPRSAL-35F, Relative activity: 46
[2]
  α2→3 Sialyltransferase activity, pAMoPRSAW17-31F, pmol: 47.5 pmol
  acceptance as substrate by the α2→3 sialyltransferase (in words): can take not only LNnT but also LNT as the substrate
  α2→3 Sialyltransferase activity, pAMoPRSAW17-31F, Relative activity: 42
[3]
  Known α2→3 ST Relative activity (Table 1): 100
  Known α2→3 ST Relative activity (Table 2): 100

## CC(=O)N[C@H]1[C@H](O[C@H]2[C@@H](O)[C@@H](CO)O[C@@H](O[C@H]3[C@H](O[C@@H]4O[C@@H](C)[C@@H](O)[C@@H](O)[C@@H]4O)[C@@H](O)C(O)O[C@@H]3CO)[C@@H]2O)O[C@H](CO)[C@@H](O)[C@@H]1O[C@@H]1O[C@H](CO)[C@H](O)[C@H](O)[C@H]1O (some centres unmarked) [lacto-N-fucopentaose V]
[1]
  α2→3 Sialyltransferase activity, pAMoPRSAL-35F, pmol: 28.8 pmol
  α2→3 Sialyltransferase activity, pAMoPRSAL-35F, Relative activity: 56
[2]
  α2→3 Sialyltransferase activity, pAMoPRSAW17-31F, pmol: 36.3 pmol
  α2→3 Sialyltransferase activity, pAMoPRSAW17-31F, Relative activity: 32
